Laboratory results from patent US20230391781A1, “MALT1 MODULATORS AND USES THEREOF” (Rheos Medicines, Inc., priority 2020, published 2023).
Where a name gives a salt, the structure may show the parent alone.

Tests used:
full length MALT1 = full length MALT1 (Homo sapiens (Human), UniProt Q9UDY8); experiment: MALT1 Biochemical Assay; conditions: 15 nM enzyme, 30 μM peptide substrate Ac-Leu-Arg-Ser-Arg-Rh110-dPro, 30 min pre-incubation, 60 min reaction; mean value if tested more than once
Method: Inhibitor potency was evaluated by measuring enzymatic activity of full length MALT1 at varying concentrations of compound. The enzymatic assay consists of a single substrate reaction that monitors the release of a fluorescent dye upon cleavage of the peptide substrate. […] The assay buffer consists of 50 mM Hepes, pH 7.5, 0.8 M sodium citrate, 1 mM DTT, 0.004% tween-20, and 0.005% bovine serum albumin (BSA). […] The reaction was quenched after 60 minutes with the addition of iodoacetate at a final concentration of 10 mM. Total fluorescence was measured using an Envision (PerkinElmer) with fluorescence excitation at 485 nm and emission at […].
For potency determination, 1 μL of serially diluted compound (in 100% DMSO) was pre-incubated with 40 μL of enzyme for 30 minutes. The reaction was initiated with the addition of 10 μL of peptide substrate. The relative fluorescence units were transformed to percent inhibition by using 0% and 100% inhibition controls as reference. […] IC50 values were calculated by fitting the concentration-response curves to a four-parameter logistic equation in GraphPad Prism.

[1] = tested on: IL-2 in Jurkat (ATCC, clone E6.1) cells stimulated with anti-CD3/28/2; experiment: Jurkat IL-2 Assay; type: cell-based; conditions: Homo sapiens; IL-2 inhibition, Jurkat cells, 30 min compound then anti-CD3/28/2 stimulation for 24 hours; mean value if tested more than once; read-out: IC50
Method: Inhibition was determined in a cell-based assay using Jurkat (ATCC, clone E6.1), an immortalized T-cell line, exposed to a dose response of compound and assessed for viability, and Il-2 inhibition by ELISA. Cells were cultured in RPMI/10% FBS (Invitrogen 11875093, Atlanta Biologicals S12450H), maintained below 3E6/mL and only used in assays while below passage 25. Compounds were stamped by ECHO onto 384w plates (PerkinElmer Culturplate, 6007680). The cells were plated in fresh media on top of compound and incubated for 30 minutes before stimulation with soluble anti-CD3/28/2 (Stemcell, 10970) for 24 hours. Supernatant was collected and assessed for Il-2 (MSD, 384w, L21SA-1). To assess viability of cells treated with compound, cells were lysed with CTG reagent (Promega, G7570), and measured by luminometer. […] IC50s calculated using 4-parameter fit in GraphPad Prism.
In this table, “A” indicates IC50 of less than 0.1 μM; “B” indicates IC50 from 0.1 μM up to 1 μM; and “C” indicates IC50 of greater than 1 μM. “N/A” indicates not tested. For a compound that was tested in more than one experiment, the result shown represents the mean value.

full length MALT1, sequence (Q9UDY8 whole entry): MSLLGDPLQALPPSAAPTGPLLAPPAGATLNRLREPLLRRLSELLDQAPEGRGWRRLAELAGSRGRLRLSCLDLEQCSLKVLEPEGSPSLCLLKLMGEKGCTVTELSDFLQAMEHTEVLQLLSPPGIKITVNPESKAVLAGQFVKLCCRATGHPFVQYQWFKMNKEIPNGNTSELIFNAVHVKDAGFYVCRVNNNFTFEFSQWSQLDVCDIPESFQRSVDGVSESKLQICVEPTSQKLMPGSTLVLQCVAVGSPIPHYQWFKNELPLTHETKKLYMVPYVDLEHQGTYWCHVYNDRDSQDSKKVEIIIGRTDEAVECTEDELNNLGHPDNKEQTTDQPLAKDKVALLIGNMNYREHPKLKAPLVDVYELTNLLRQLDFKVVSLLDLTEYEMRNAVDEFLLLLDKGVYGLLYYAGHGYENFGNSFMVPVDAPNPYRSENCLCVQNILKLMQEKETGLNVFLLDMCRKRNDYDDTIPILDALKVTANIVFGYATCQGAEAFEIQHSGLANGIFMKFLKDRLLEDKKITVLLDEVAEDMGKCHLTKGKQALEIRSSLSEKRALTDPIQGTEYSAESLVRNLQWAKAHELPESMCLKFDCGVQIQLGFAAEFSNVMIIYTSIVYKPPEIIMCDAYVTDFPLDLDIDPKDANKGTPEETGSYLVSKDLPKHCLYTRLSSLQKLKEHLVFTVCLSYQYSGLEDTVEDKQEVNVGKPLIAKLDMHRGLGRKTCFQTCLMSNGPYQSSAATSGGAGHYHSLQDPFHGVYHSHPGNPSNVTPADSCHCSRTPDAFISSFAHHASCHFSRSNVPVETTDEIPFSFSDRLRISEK

IC50 (full length MALT1) | IC50 [1] | SMILES
100 to 1000 nM | > 1000 nM | CO[C@@H](C)c1c(Nc2ccc([C@H](N(C)C(=O)C3CCCN(S(C)(=O)=O)C3)C(F)(F)F)cc2)cnc2nc(Cl)nn12 (stereo partly drawn) [Compound 3.7, N-[(1S)-1-[4-({2-chloro-7-[(1S)-1-methoxyethyl]-[1,2,4]triazolo[1,5-a]pyrimidin-6-yl}amino)phenyl]-2,2,2-trifluoroethyl]-1-methanesulfonyl-N-methylpiperidine-3-carboxamide]
> 1000 nM | > 1000 nM | CO[C@@H](C)c1c(Nc2ccc(C(C)N(C)C(=O)C3CCC3)cc2)cnc2nc(Cl)nn12 (stereo partly drawn) [Compound 1.20, N-{1-[4-({2-chloro-7-[(1S)-1-methoxyethyl]-[1,2,4]triazolo[1,5-a]pyrimidin-6-yl}amino)phenyl]ethyl}-N-methylcyclobutanecarboxamide]
> 1000 nM | > 1000 nM | CO[C@@H](C)c1c(Nc2ccc(C(C)N(C)C(=O)C3CC3)cc2)cnc2nc(Cl)nn12 (stereo partly drawn) [Compound 1.23, N-{1-[4-({2-chloro-7-[(1S)-1-methoxyethyl]-[1,2,4]triazolo[1,5-a]pyrimidin-6-yl}amino)phenyl]ethyl}-N-methylcyclopropanecarboxamide]
> 1000 nM | > 1000 nM | CO[C@@H](C)c1c(Nc2ccc([C@@H](N(C)C(=O)C3CCS(=O)(=O)CC3)C(F)(F)F)cc2)cnc2nc(Cl)nn12 [Compound 1.26, N-[(1R)-1-[4-({2-chloro-7-[(1S)-1-methoxyethyl]-[1,2,4]triazolo[1,5-a]pyrimidin-6-yl}amino)phenyl]-2,2,2-trifluoroethyl]-N-methyl-1,1-dioxo-1λ^6-thiane-4-carboxamide]
< 100 nM | 100 to 1000 nM | CO[C@@H](C)c1c(Nc2ccc([C@H](N(C)C(=O)C3CCC(NC(C)=O)CC3)C(F)(F)F)cc2)cnc2nc(Cl)nn12 (stereo partly drawn) [Compound 1.17, N-[(1S)-1-[4-({2-chloro-7-[(1S)-1-methoxyethyl]-[1,2,4]triazolo[1,5-a]pyrimidin-6-yl}amino)phenyl]-2,2,2-trifluoroethyl]-4-acetamido-N-methylcyclohexane1-carboxamide]
100 to 1000 nM | 100 to 1000 nM | CO[C@@H](C)c1c(Nc2ccc([C@H](N(C)C(=O)C3CCCCO3)C(F)(F)F)cc2)cnc2nc(Cl)nn12 (stereo partly drawn) [Compound 1.3, N-[(1S)-1-[4-({2-chloro-7-[(1S)-1-methoxyethyl]-[1,2,4]triazolo[1,5-a]pyrimidin-6-yl}amino)phenyl]-2,2,2-trifluoroethyl]-N-methyloxane-2-carboxamide]
< 100 nM | 100 to 1000 nM | COC(=O)NCC1CCC(C(=O)N(C)[C@@H](c2ccc(Nc3cnc4nc(Cl)nn4c3[C@H](C)OC)cc2)C(F)(F)F)CC1 (stereo partly drawn) [Compound 3.12, methyl N-[(4-{[(1S)-1-[4-({2-chloro-7-[(1S)-1-methoxyethyl]-[1,2,4]triazolo[1,5-a]pyrimidin-6-yl}amino)phenyl]-2,2,2-trifluoroethyl](methyl)carbamoyl}cyclohexyl)methyl]carbamate]
< 100 nM | 100 to 1000 nM | CO[C@@H](C)c1c(Nc2ccc([C@H](N(C)C(=O)C3CCN(S(=O)(=O)C(C)C)CC3)C(F)(F)F)cc2)cnc2nc(Cl)nn12 [Compound 3.2, N-[(1S)-1-[4-({2-chloro-7-[(1S)-1-methoxyethyl]-[1,2,4]triazolo[1,5-a]pyrimidin-6-yl}amino)phenyl]-2,2,2-trifluoroethyl]-N-methyl-1-(propane-2-sulfonyl)piperidine-4-carboxamide]
< 100 nM | 100 to 1000 nM | CO[C@@H](C)c1c(Nc2ccc([C@H](N(C)C(=O)[C@H]3CC[C@H](OC)CC3)C(F)(F)F)cc2)cnc2nc(Cl)nn12 [Compound 1.14, (1r,4S)—N—((S)-1-(4-((2-chloro-7-((S)-1-methoxyethyl)-[1,2,4]triazolo[1,5-a]pyrimidin-6-yl)amino)phenyl)-2,2,2-trifluoroethyl)-4-methoxy-N-methylcyclohexane-1-carboxamide]
100 to 1000 nM | 100 to 1000 nM | CO[C@@H](C)c1c(Nc2ccc([C@H](N(C)C(=O)C3CCNC3)C(F)(F)F)cc2)cnc2nc(Cl)nn12 (stereo partly drawn) [Compound 2.3, N—((S)-1-(4-((2-chloro-7-((S)-1-methoxyethyl)-[1,2,4]triazolo[1,5-a]pyrimidin-6-yl)amino)phenyl)-2,2,2-trifluoroethyl)-N-methylpyrrolidine-3-carboxamide hydrochloride]
100 to 1000 nM | > 1000 nM | CO[C@@H](C)c1c(Nc2ccc([C@H](N(C)C(=O)C3CCN(C(=O)OC(C)(C)C)C3)C(F)(F)F)cc2)cnc2nc(Cl)nn12 (stereo partly drawn) [Compound 1.12, Tert-butyl 3-{[(1S)-1-[4-({2-chloro-7-[(1S)-1-methoxyethyl]-[1,2,4]triazolo[1,5-a]pyrimidin-6-yl}amino)phenyl]-2,2,2-trifluoroethyl](methyl)carbamoyl}pyrrolidine-1-carboxylate]
100 to 1000 nM | > 1000 nM | CO[C@@H](C)c1c(Nc2ccc([C@H](N(C)C(=O)C3CCS(=O)(=O)CC3)C(F)(F)F)c(C)c2)cnc2nc(Cl)nn12 [Compound 1.30, N-[(1S)-1-[4-({2-chloro-7-[(1S)-1-methoxyethyl]-[1,2,4]triazolo[1,5-a]pyrimidin-6-yl}amino)-2-methylphenyl]-2,2,2-trifluoroethyl]-N-methyl-1,1-dioxo-1λ^6-thiane-4-carboxamide]
< 100 nM | 100 to 1000 nM | CO[C@@H](C)c1c(Nc2ccc([C@H](N(C)C(=O)C3CCSCC3)C(F)(F)F)cc2)cnc2nc(Cl)nn12 [Compound 1.5, N-[(1S)-1-[4-({2-chloro-7-[(1S)-1-methoxyethyl]-[1,2,4]triazolo[1,5-a]pyrimidin-6-yl}amino)phenyl]-2,2,2-trifluoroethyl]-N-methylthiane-4-carboxamide]
< 100 nM | 100 to 1000 nM | CO[C@@H](C)c1c(Nc2ccc([C@H](N(C)C(=O)C3CCCN(C(C)=O)C3)C(F)(F)F)cc2)cnc2nc(Cl)nn12 (stereo partly drawn) [Compound 3.5, 1-acetyl-N-[(1S)-1-[4-({2-chloro-7-[(1S)-1-methoxyethyl]-[1,2,4]triazolo[1,5-a]pyrimidin-6-yl}amino)phenyl]-2,2,2-trifluoroethyl]-N-methylpiperidine-3-carboxamide]
100 to 1000 nM | 100 to 1000 nM | CO[C@@H](C)c1c(Nc2ccc([C@H](N(C)C(=O)C3CCN(C(=O)OC(C)(C)C)CC3)C(F)(F)F)cc2)cnc2nc(Cl)nn12 [Compound 1.10, tert-butyl 4-{[(1S)-1-[4-({2-chloro-7-[(1S)-1-methoxyethyl]-[1,2,4]triazolo[1,5-a]pyrimidin-6-yl}amino)phenyl]-2,2,2-trifluoroethyl](methyl)carbamoyl}piperidine-1-carboxylate]
< 100 nM | 100 to 1000 nM | CO[C@@H](C)c1c(Nc2ccc([C@H](N(C)C(=O)C3CCC(CNC(C)=O)CC3)C(F)(F)F)cc2)cnc2nc(Cl)nn12 (stereo partly drawn) [Compound 3.11, N-[(1S)-1-[4-({2-chloro-7-[(1S)-1-methoxyethyl]-[1,2,4]triazolo[1,5-a]pyrimidin-6-yl}amino)phenyl]-2,2,2-trifluoroethyl]-4-(acetamidomethyl)-N-methylcyclohexane-1-carboxamide]
100 to 1000 nM | 100 to 1000 nM | CO[C@@H](C)c1c(Nc2ccc([C@H](N(C)C(C)=O)C(F)(F)F)cc2)cnc2nc(Cl)nn12 [Compound 1.2, N-[(1S)-1-[4-({2-chloro-7-[(1S)-1-methoxyethyl]-[1,2,4]triazolo[1,5-a]pyrimidin-6-yl}amino)phenyl]-2,2,2-trifluoroethyl]-N-methylacetamide]
